# Test results from ChEMBL document CHEMBL4138296, “Nonacidic Chemotype Possessing N-Acylated Piperidine Moiety as Potent Farnesoid X Receptor (FXR) Antagonists” (ACS Med Chem Lett, 2018).
# pIC50: −log10 of the molar value. Calls of active or inactive are those of the source. No cut-off for these calls is given here.
# Tests used:
# [1] = target: T1, Bile acid receptor (Homo sapiens, UniProt Q96RI1); assay: Antagonist activity at GST-tagged FXR LBD (unknown origin) assessed as inhibition of GW4064-induced fluorecein-labeled SRC2-2 coactivator recruitment by Lanthascreen TR-FRET assay
# T1 sequence (Q96RI1 whole entry): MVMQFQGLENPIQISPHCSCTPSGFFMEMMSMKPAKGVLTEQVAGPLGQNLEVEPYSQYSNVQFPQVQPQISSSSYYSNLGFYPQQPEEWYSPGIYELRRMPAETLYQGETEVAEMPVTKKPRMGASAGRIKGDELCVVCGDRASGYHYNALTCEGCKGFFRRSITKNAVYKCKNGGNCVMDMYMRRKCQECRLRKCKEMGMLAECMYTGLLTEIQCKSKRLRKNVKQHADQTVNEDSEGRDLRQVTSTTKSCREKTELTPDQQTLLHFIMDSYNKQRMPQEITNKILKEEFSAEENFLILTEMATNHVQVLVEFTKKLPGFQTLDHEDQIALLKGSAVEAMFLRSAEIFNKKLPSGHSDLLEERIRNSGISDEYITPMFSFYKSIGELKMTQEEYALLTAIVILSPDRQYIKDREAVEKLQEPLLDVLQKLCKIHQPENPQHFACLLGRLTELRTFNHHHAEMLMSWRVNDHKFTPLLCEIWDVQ
# [2] = target: T1, Bile acid receptor; assay: Antagonist activity at human FXR expressed in Hep3B cells assessed as inhibition of CDCA-induced FXR response element driven luciferase activity after 24 hrs; format: cell-based
# [3] = test system: Hep 3B2; assay: Cytotoxicity against human Hep3B cells assessed as reduction in cell viability by MTT assay; format: functional, cell-based
# [4] = test system: 3T3-L1; assay: Antiadipogenic activity in mouse 3T3L1 cells assessed as reduction in intracellular lipid droplets at 10 uM after 6 days by Oil Red O staining based assay; format: functional, cell-based
# [5] = test system: 3T3-L1; assay: Antiadipogenic activity in mouse 3T3L1 cells assessed as inhibition of CDCA-induced intracellular lipid droplets after 6 days by Oil Red O staining based assay; format: functional, cell-based
SMILES,pIC50 [1],pIC50 [2],pIC50 [3],Activity [4],inhibition [5]
C/C=C1/C(=O)C[C@H]2[C@@H]3CCC4=CC(=O)CC[C@]4(C)[C@H]3CC[C@]12C,,,,Active,Dose-dependent effect
CC(C)C(=O)N1CCC(C[C@@H](c2nc3cc(F)ccc3n2C)N2C(=O)CN(c3ccc(Oc4ccccc4)cc3)C2=O)CC1,6.47,10.22,< 4.00,,
CC(=O)N1CCC(C[C@@H](c2nc3cc(F)ccc3n2C)N2C(=O)CN(c3ccc(Oc4ccccc4)cc3)C2=O)CC1,5.08,9.00,< 4.00,,
CC(C)C(=O)N1CCC(C[C@@H](c2nc3ccccc3n2C)N2C(=O)CN(c3ccc(Oc4ccccc4)cc3)C2=O)CC1,7.42,> 12.00,< 4.00,,
CC(=O)N1CCC(C[C@@H](c2nc3ccccc3n2C)N2C(=O)CN(c3ccc(Oc4ccccc4)cc3)C2=O)CC1,6.13,11.70,4.49,,

# The next lines start with results.
pIC50 [1],pIC50 [2],SMILES,pIC50 [3],Activity [4],inhibition [5]
5.89,9.70,CC(=O)N1CCC(C[C@@H](c2nc3ccc(C)cc3n2C)N2C(=O)CN(c3ccc(Oc4ccccc4)cc3)C2=O)CC1,4.76,,
4.19,5.35,Cc1ccc2nc([C@H](CC3CCNCC3)N3C(=O)CN(c4ccc(Oc5ccccc5)cc4)C3=O)n(C)c2c1,4.78,,
4.79,4.76,Cc1ccc2nc([C@H](CC3CCN(CC(C)C)CC3)N3C(=O)CN(c4ccc(Oc5ccccc5)cc4)C3=O)n(C)c2c1,5.16,,
6.89,10.30,CC(C)C(=O)N1CCC(C[C@@H](c2nc3ccc(Cl)cc3n2C)N2C(=O)CN(c3ccc(Oc4ccccc4)cc3)C2=O)CC1,< 4.00,,
7.52,11.22,Cc1ccc2nc([C@H](CC3CCN(C(=O)C4CCCC4)CC3)N3C(=O)CN(c4ccc(Oc5ccccc5)cc4)C3=O)n(C)c2c1,< 4.00,,
5.46,9.10,CC(=O)N1CCC(C[C@@H](c2nc3ccc(Cl)cc3n2C)N2C(=O)CN(c3ccc(Oc4ccccc4)cc3)C2=O)CC1,< 4.00,,
